# According to US9980943B2, “Methods of treating muscular dystrophy” (BOARD OF REGENTS OF THE NEVADA SYSTEM OF HIGHER EDUCATION, …, priority 2013, dated 2018):
# How the values were obtained:
# Type in all cases: cell-based, mouse
# [1] = system: α7 integrin (LacZ reporter in α7βgal+/− myoblasts); experiment: Myoblast α7+/LacZ integrin FDG assay (Burkin assay in myoblasts, 96-well); conditions: 96-well; for Burkin Assay in Myoblasts, signal relative to DMSO: α7+/LacZ myoblasts; for Burkin Assay in Myoblasts, value relative to DMSO: SU9516 analogs, N=3-6
# [2] = system: α7 integrin (LacZ reporter in α7+/LacZ myotubes); experiment: Myotube α7 integrin FDG assay (Burkin assay in myotubes, 96-well); conditions: for Burkin Assay in Myotubes, value relative to DMSO: SU9516 analogs, 96-well, N=3-6
# [3] = system: β-galactosidase in CMV-LacZ C2C12 myoblasts; experiment: CMV-LacZ secondary screen in C2C12 myoblasts (β-Gal stabilizing assay); conditions: for CMV-LACZ in Myoblasts (β-galactosidase activity relative to DMSO): CMV-LacZ C2C12 myoblasts; for CMV-LACZ in Myoblasts, value relative to DMSO: SU9516 analogs, C2C12 CMV-LacZ, N=2
# Procedure, shortened: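 Stable CMV-LacZ C2C12 clone; six-point curve 0.5–40 μM; duplicates.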
# [4] = system: β-galactosidase in CMV-LacZ C2C12 myotubes; experiment: CMV-LacZ secondary screen in C2C12 myotubes (β-Gal stabilizing assay); conditions: for CMV-LACZ in Myotubes, signal relative to DMSO: C2C12 CMV-LacZ myotubes, fold relative to DMSO; for CMV-LACZ in Myotubes, value relative to DMSO: SU9516 analogs, C2C12 CMV-LacZ, N=2
# Procedure, shortened: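 β-gal stabilization was measured in C2C12 myoblasts or myotubes stably transfected with a CMV-driven LacZ construct, using the FDG β-gal assay. Compounds were tested in dose-response at 0.5, 1, 5, 10, 20 and 40 μM, with two replicates per point.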
smiles,measurement,setting,value
COc1cc([N+](=O)[O-])cc(/C=N/NC(=O)C(O)(c2ccccc2)c2ccccc2)c1O [MLS001183575-01],"Burkin Assay in Myoblasts, signal relative to DMSO",[1]; 0.5 uM,0.9644
same,"Burkin Assay in Myoblasts, signal relative to DMSO",[1]; 1 uM,1.009
same,"Burkin Assay in Myoblasts, signal relative to DMSO",[1]; 5 uM,0.8981
same,"Burkin Assay in Myoblasts, signal relative to DMSO",[1]; 10 uM,0.7946
same,"Burkin Assay in Myoblasts, signal relative to DMSO",[1]; 20 uM,0.6916
same,"Burkin Assay in Myoblasts, signal relative to DMSO",[1]; 40 uM,0.5338
same,"Burkin Assay in Myotubes, α7 integrin LacZ reporter signal relative to DMSO",[2]; 0.5 uM,1.0887
same,"Burkin Assay in Myotubes, α7 integrin LacZ reporter signal relative to DMSO",[2]; 1 uM,0.9681
same,"Burkin Assay in Myotubes, α7 integrin LacZ reporter signal relative to DMSO",[2]; 5 uM,0.8172
same,"Burkin Assay in Myotubes, α7 integrin LacZ reporter signal relative to DMSO",[2]; 10 uM,0.7938
same,"Burkin Assay in Myotubes, α7 integrin LacZ reporter signal relative to DMSO",[2]; 20 uM,0.7378
same,"Burkin Assay in Myotubes, α7 integrin LacZ reporter signal relative to DMSO",[2]; 40 uM,0.6868
same,CMV-LACZ in Myoblasts (β-galactosidase activity relative to DMSO),[3]; 0.5 uM,1.1603
same,CMV-LACZ in Myoblasts (β-galactosidase activity relative to DMSO),[3]; 1 uM,1.2440
same,CMV-LACZ in Myoblasts (β-galactosidase activity relative to DMSO),[3]; 5 uM,0.8972
same,CMV-LACZ in Myoblasts (β-galactosidase activity relative to DMSO),[3]; 10 uM,0.7762
same,CMV-LACZ in Myoblasts (β-galactosidase activity relative to DMSO),[3]; 20 uM,1.2825
same,CMV-LACZ in Myoblasts (β-galactosidase activity relative to DMSO),[3]; 40 uM,0.8856
same,"CMV-LACZ in Myotubes, signal relative to DMSO",[4]; 0.5 uM,0.9648
same,"CMV-LACZ in Myotubes, signal relative to DMSO",[4]; 1 uM,0.8657
same,"CMV-LACZ in Myotubes, signal relative to DMSO",[4]; 5 uM,0.7726
same,"CMV-LACZ in Myotubes, signal relative to DMSO",[4]; 10 uM,0.9136
same,"CMV-LACZ in Myotubes, signal relative to DMSO",[4]; 20 uM,0.8230
same,"CMV-LACZ in Myotubes, signal relative to DMSO",[4]; 40 uM,1.1230
O=C1Nc2ccccc2/C1=C/c1ccc([N+](=O)[O-])cc1 [MLS001194544-01],"Burkin Assay in Myoblasts, value relative to DMSO",[1]; 0.5 uM,1.044
same,"Burkin Assay in Myoblasts, value relative to DMSO",[1]; 1 uM,0.9906
same,"Burkin Assay in Myoblasts, value relative to DMSO",[1]; 5 uM,1.02
same,"Burkin Assay in Myoblasts, value relative to DMSO",[1]; 10 uM,1.145
same,"Burkin Assay in Myoblasts, value relative to DMSO",[1]; 20 uM,0.7914
same,"Burkin Assay in Myoblasts, value relative to DMSO",[1]; 40 uM,0.5028
same,"Burkin Assay in Myotubes, value relative to DMSO",[2]; 0.5 uM,0.9611
same,"Burkin Assay in Myotubes, value relative to DMSO",[2]; 1 uM,0.9995
same,"Burkin Assay in Myotubes, value relative to DMSO",[2]; 5 uM,1.002
same,"Burkin Assay in Myotubes, value relative to DMSO",[2]; 10 uM,1.07
same,"Burkin Assay in Myotubes, value relative to DMSO",[2]; 20 uM,0.754
same,"Burkin Assay in Myotubes, value relative to DMSO",[2]; 40 uM,0.7611
same,"CMV-LACZ in Myoblasts, value relative to DMSO",[3]; 0.5 uM,0.8975
same,"CMV-LACZ in Myoblasts, value relative to DMSO",[3]; 1 uM,0.7213
same,"CMV-LACZ in Myoblasts, value relative to DMSO",[3]; 5 uM,0.9068
same,"CMV-LACZ in Myoblasts, value relative to DMSO",[3]; 10 uM,1.0363
same,"CMV-LACZ in Myoblasts, value relative to DMSO",[3]; 20 uM,0.8983
same,"CMV-LACZ in Myoblasts, value relative to DMSO",[3]; 40 uM,0.7383
same,"CMV-LACZ in Myotubes, value relative to DMSO",[4]; 0.5 uM,1.0764
same,"CMV-LACZ in Myotubes, value relative to DMSO",[4]; 1 uM,1.1318
same,"CMV-LACZ in Myotubes, value relative to DMSO",[4]; 5 uM,0.9683
same,"CMV-LACZ in Myotubes, value relative to DMSO",[4]; 10 uM,0.9739
same,"CMV-LACZ in Myotubes, value relative to DMSO",[4]; 20 uM,0.9800
same,"CMV-LACZ in Myotubes, value relative to DMSO",[4]; 40 uM,0.9400
O=C(O)COc1ccccc1/C=C1\C(=O)Nc2ccc(Br)cc21 [MLS001196427-01],"Burkin Assay in Myoblasts, value relative to DMSO",[1]; 0.5 uM,1.02
same,"Burkin Assay in Myoblasts, value relative to DMSO",[1]; 1 uM,1.033
same,"Burkin Assay in Myoblasts, value relative to DMSO",[1]; 5 uM,0.9384
same,"Burkin Assay in Myoblasts, value relative to DMSO",[1]; 10 uM,0.9777
same,"Burkin Assay in Myoblasts, value relative to DMSO",[1]; 20 uM,0.8102
same,"Burkin Assay in Myoblasts, value relative to DMSO",[1]; 40 uM,0.8763
same,"Burkin Assay in Myotubes, value relative to DMSO",[2]; 0.5 uM,0.9194
same,"Burkin Assay in Myotubes, value relative to DMSO",[2]; 1 uM,1.02
same,"Burkin Assay in Myotubes, value relative to DMSO",[2]; 5 uM,1.022
same,"Burkin Assay in Myotubes, value relative to DMSO",[2]; 10 uM,1.135
same,"Burkin Assay in Myotubes, value relative to DMSO",[2]; 20 uM,0.7942
same,"Burkin Assay in Myotubes, value relative to DMSO",[2]; 40 uM,0.9365
same,"CMV-LACZ in Myoblasts, value relative to DMSO",[3]; 0.5 uM,0.7219
same,"CMV-LACZ in Myoblasts, value relative to DMSO",[3]; 1 uM,1.0356
same,"CMV-LACZ in Myoblasts, value relative to DMSO",[3]; 5 uM,0.9957
same,"CMV-LACZ in Myoblasts, value relative to DMSO",[3]; 10 uM,1.1811
same,"CMV-LACZ in Myoblasts, value relative to DMSO",[3]; 20 uM,0.7144
same,"CMV-LACZ in Myoblasts, value relative to DMSO",[3]; 40 uM,0.9563
same,"CMV-LACZ in Myotubes, value relative to DMSO",[4]; 0.5 uM,0.9363
same,"CMV-LACZ in Myotubes, value relative to DMSO",[4]; 1 uM,1.0704
same,"CMV-LACZ in Myotubes, value relative to DMSO",[4]; 5 uM,0.8423
same,"CMV-LACZ in Myotubes, value relative to DMSO",[4]; 10 uM,0.9282
same,"CMV-LACZ in Myotubes, value relative to DMSO",[4]; 20 uM,0.9918
same,"CMV-LACZ in Myotubes, value relative to DMSO",[4]; 40 uM,0.9000
